Reference: PubChem BioAssay AID1963968 (Molecular Pharmacology Branch, DTP, NCI, 2024)

Tested on: 945468-187-T-J3-PDC spheroids with HUVEC/MSC, viability
Assay: Anticancer human tumor 945468-187-T-J3-PDC patient-derived rectal carcinoma cell line growth inhibition [PI3K]
Conditions: for IC50: curve of first compound; for viability, T/C: stronger effect = lower value
Procedure, shortened: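 Spheroid viability read-out. Co-cultures contained the tumor line plus HUVEC and human MSCs. Each agent was paired with a PI3K inhibitor (inavolisib, alpelisib, duvelisib, copanlisib) across half-log dilutions starting at clinical Cmax, or at 10 microM when Cmax was unknown.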

[1] = second compound 0.00316 µM, first compound 0.0316 µM
[2] = second compound 0.00316 µM, first compound 0.1 µM
[3] = second compound 0.00316 µM, first compound 0.316 µM
[4] = second compound 0.00316 µM, first compound 1 µM
[5] = second compound 0.00316 µM, first compound 3.16 µM
[6] = second compound 0.00316 µM, first compound 10 µM
[7] = second compound 0.01 µM, first compound 0.0316 µM
[8] = second compound 0.01 µM, first compound 0.1 µM
[9] = second compound 0.01 µM, first compound 0.316 µM
[10] = second compound 0.01 µM, first compound 1 µM
[11] = second compound 0.01 µM, first compound 3.16 µM
[12] = second compound 0.01 µM, first compound 10 µM
[13] = second compound 0.0316 µM, first compound 0.0316 µM
[14] = second compound 0.0316 µM, first compound 0.1 µM
[15] = second compound 0.0316 µM, first compound 0.316 µM
[16] = second compound 0.0316 µM, first compound 1 µM
[17] = second compound 0.0316 µM, first compound 3.16 µM
[18] = second compound 0.0316 µM, first compound 10 µM
[19] = second compound 0.1 µM, first compound 0.0316 µM
[20] = second compound 0.1 µM, first compound 0.1 µM
[21] = second compound 0.1 µM, first compound 0.316 µM
[22] = second compound 0.1 µM, first compound 1 µM
[23] = second compound 0.1 µM, first compound 3.16 µM
[24] = second compound 0.1 µM, first compound 10 µM
[25] = second compound 0.316 µM, first compound 0.0316 µM
[26] = second compound 0.316 µM, first compound 0.1 µM
[27] = second compound 0.316 µM, first compound 0.316 µM
[28] = second compound 0.316 µM, first compound 1 µM
[29] = second compound 0.316 µM, first compound 3.16 µM
[30] = second compound 0.316 µM, first compound 10 µM
[31] = second compound 1 µM, first compound 0.0316 µM
[32] = second compound 1 µM, first compound 0.1 µM
[33] = second compound 1 µM, first compound 0.316 µM
[34] = second compound 1 µM, first compound 1 µM
[35] = second compound 1 µM, first compound 3.16 µM
[36] = second compound 1 µM, first compound 10 µM
[37] = second compound 0.00316 µM, first compound 0.000316 µM
[38] = second compound 0.00316 µM, first compound 0.001 µM
[39] = second compound 0.00316 µM, first compound 0.00316 µM
[40] = second compound 0.00316 µM, first compound 0.01 µM
[41] = second compound 0.01 µM, first compound 0.000316 µM
[42] = second compound 0.01 µM, first compound 0.001 µM
[43] = second compound 0.01 µM, first compound 0.00316 µM
[44] = second compound 0.01 µM, first compound 0.01 µM
[45] = second compound 0.0316 µM, first compound 0.000316 µM
[46] = second compound 0.0316 µM, first compound 0.001 µM
[47] = second compound 0.0316 µM, first compound 0.00316 µM
[48] = second compound 0.0316 µM, first compound 0.01 µM
[49] = second compound 0.1 µM, first compound 0.000316 µM
[50] = second compound 0.1 µM, first compound 0.001 µM
[51] = second compound 0.1 µM, first compound 0.00316 µM
[52] = second compound 0.1 µM, first compound 0.01 µM
[53] = second compound 0.316 µM, first compound 0.000316 µM
[54] = second compound 0.316 µM, first compound 0.001 µM
[55] = second compound 0.316 µM, first compound 0.00316 µM
[56] = second compound 0.316 µM, first compound 0.01 µM
[57] = second compound 1 µM, first compound 0.000316 µM
[58] = second compound 1 µM, first compound 0.001 µM
[59] = second compound 1 µM, first compound 0.00316 µM
[60] = second compound 1 µM, first compound 0.01 µM
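Also: spheroids exposed to agents for 7 days before viability read.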
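For viability, T/C in this document: 100% = DMSO vehicle control viability.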

CC(C)NCC(C(=O)N1CCN(c2ncnc3c2C(C)CC3O)CC1)c1ccc(Cl)cc1 (stereo not given) + COc1c(OCCCN2CCOCC2)ccc2c3n(c(=NC(=O)c4cnc(N)nc4)nc12)CCN3
IC50 (second compound 0.00316 µM): 3680 nM
IC50 (second compound 0.01 µM): 3740 nM
IC50 (second compound 0.0316 µM): 1850 nM
IC50 (second compound 0.1 µM): < 31.6 nM
IC50 (second compound 0.316 µM): < 31.6 nM
IC50 (second compound 1 µM): < 31.6 nM
viability, T/C [1]: 94.2%
viability, T/C [2]: 83.3%
viability, T/C [3]: 88.8%
viability, T/C [4]: 70.6%
viability, T/C [5]: 52.1%
viability, T/C [6]: 39.4%
viability, T/C [7]: 92.6%
viability, T/C [8]: 80.9%
viability, T/C [9]: 89.3%
viability, T/C [10]: 81.7%
viability, T/C [11]: 53.8%
viability, T/C [12]: 28.2%
viability, T/C [13]: 79%
viability, T/C [14]: 84.4%
viability, T/C [15]: 66.7%
viability, T/C [16]: 71.8%
viability, T/C [17]: 31.1%
viability, T/C [18]: 25.8%
viability, T/C [19]: 39%
viability, T/C [20]: 45.5%
viability, T/C [21]: 43.4%
viability, T/C [22]: 27.9%
viability, T/C [23]: 23.5%
viability, T/C [24]: 18.6%
viability, T/C [25]: 19.8%
viability, T/C [26]: 19.3%
viability, T/C [27]: 17.6%
viability, T/C [28]: 18%
viability, T/C [29]: 19.5%
viability, T/C [30]: 13.3%
viability, T/C [31]: 18.6%
viability, T/C [32]: 13.7%
viability, T/C [33]: 15.8%
viability, T/C [34]: 13.6%
viability, T/C [35]: 19.7%
viability, T/C [36]: 11.8%

CC(C)n1nc(-c2ccc3oc(N)nc3c2)c2c(N)ncnc21 + COc1c(OCCCN2CCOCC2)ccc2c3n(c(=NC(=O)c4cnc(N)nc4)nc12)CCN3
IC50 (second compound 0.00316 µM): 76.1 nM
IC50 (second compound 0.01 µM): 62.6 nM
IC50 (second compound 0.0316 µM): 25.6 nM
IC50 (second compound 0.1 µM): < 0.316 nM
IC50 (second compound 0.316 µM): < 0.316 nM
IC50 (second compound 1 µM): < 0.316 nM
viability, T/C [37]: 104%
viability, T/C [38]: 85.7%
viability, T/C [39]: 95.1%
viability, T/C [40]: 78.7%
viability, T/C [1]: 92.8%
viability, T/C [2]: 37.2%
viability, T/C [41]: 97.2%
viability, T/C [42]: 81.2%
viability, T/C [43]: 93.9%
viability, T/C [44]: 86.2%
viability, T/C [7]: 90.4%
viability, T/C [8]: 22.7%
viability, T/C [45]: 88.7%
viability, T/C [46]: 77.2%
viability, T/C [47]: 85%
viability, T/C [48]: 78.4%
viability, T/C [13]: 43.6%
viability, T/C [14]: 17.1%
viability, T/C [49]: 46%
viability, T/C [50]: 34%
viability, T/C [51]: 33.9%
viability, T/C [52]: 26.2%
viability, T/C [19]: 20.2%
viability, T/C [20]: 13.6%
viability, T/C [53]: 20.6%
viability, T/C [54]: 21.3%
viability, T/C [55]: 21.6%
viability, T/C [56]: 17.6%
viability, T/C [25]: 16.6%
viability, T/C [26]: 13.7%
viability, T/C [57]: 18.5%
viability, T/C [58]: 15.9%
viability, T/C [59]: 14.1%
viability, T/C [60]: 13.2%
viability, T/C [31]: 12.6%
viability, T/C [32]: 10.5%

CC1(C)CCC(CN2CCN(c3ccc(C(=O)NS(=O)(=O)c4ccc(NCC5CCOCC5)c([N+](=O)[O-])c4)c(Oc4cnc5[nH]ccc5c4)c3)CC2)=C(c2ccc(Cl)cc2)C1 + COc1c(OCCCN2CCOCC2)ccc2c3n(c(=NC(=O)c4cnc(N)nc4)nc12)CCN3
IC50 (second compound 0.00316 µM): 6060 nM
IC50 (second compound 0.01 µM): 6080 nM
IC50 (second compound 0.0316 µM): 6290 nM
IC50 (second compound 0.1 µM): 1110 nM
IC50 (second compound 0.316 µM): < 31.6 nM
IC50 (second compound 1 µM): < 31.6 nM
viability, T/C [1]: 93.4%
viability, T/C [2]: 106%
viability, T/C [3]: 117%
viability, T/C [4]: 91.1%
viability, T/C [5]: 116%
viability, T/C [6]: 8%
viability, T/C [7]: 103%
viability, T/C [8]: 90.8%
viability, T/C [9]: 93.1%
viability, T/C [10]: 97.3%
viability, T/C [11]: 119%
viability, T/C [12]: 11.3%
viability, T/C [13]: 107%
viability, T/C [14]: 94%
viability, T/C [15]: 114%
viability, T/C [16]: 98.1%
viability, T/C [17]: 106%
viability, T/C [18]: 13.7%
viability, T/C [19]: 54%
viability, T/C [20]: 43.4%
viability, T/C [21]: 50.4%
viability, T/C [22]: 53%
viability, T/C [23]: 48.5%
viability, T/C [24]: 8.54%
viability, T/C [25]: 22.1%
viability, T/C [26]: 20.7%
viability, T/C [27]: 18.1%
viability, T/C [28]: 24.3%
viability, T/C [29]: 25.7%
viability, T/C [30]: 5.28%
viability, T/C [31]: 16.7%
viability, T/C [32]: 17.9%
viability, T/C [33]: 17.8%
viability, T/C [34]: 19.7%
viability, T/C [35]: 17.7%
viability, T/C [36]: 3.81%

C[C@@H](NC(=O)c1ncnc(N)c1Cl)c1ncc(C(=O)Nc2cc(C(F)(F)F)c(Cl)cn2)s1 + COc1c(OCCCN2CCOCC2)ccc2c3n(c(=NC(=O)c4cnc(N)nc4)nc12)CCN3
IC50 (second compound 0.00316 µM): > 10000 nM
IC50 (second compound 0.01 µM): > 10000 nM
IC50 (second compound 0.0316 µM): > 10000 nM
IC50 (second compound 0.1 µM): < 31.6 nM
IC50 (second compound 0.316 µM): < 31.6 nM
IC50 (second compound 1 µM): < 31.6 nM
viability, T/C [1]: 89.2%
viability, T/C [2]: 101%
viability, T/C [3]: 97.1%
viability, T/C [4]: 104%
viability, T/C [5]: 98.4%
viability, T/C [6]: 95.9%
viability, T/C [7]: 118%
viability, T/C [8]: 91.7%
viability, T/C [9]: 101%
viability, T/C [10]: 99.3%
viability, T/C [11]: 94.6%
viability, T/C [12]: 90.3%
viability, T/C [13]: 94.5%
viability, T/C [14]: 101%
viability, T/C [15]: 83.8%
viability, T/C [16]: 95%
viability, T/C [17]: 92%
viability, T/C [18]: 102%
viability, T/C [19]: 34.8%
viability, T/C [20]: 42.1%
viability, T/C [21]: 39%
viability, T/C [22]: 45.5%
viability, T/C [23]: 45.6%
viability, T/C [24]: 51.8%
viability, T/C [25]: 19.7%
viability, T/C [26]: 22.8%
viability, T/C [27]: 19.8%
viability, T/C [28]: 18.2%
viability, T/C [29]: 20.8%
viability, T/C [30]: 21.4%
viability, T/C [31]: 17.3%
viability, T/C [32]: 17.7%
viability, T/C [33]: 17.4%
viability, T/C [34]: 16.1%
viability, T/C [35]: 19%
viability, T/C [36]: 19.9%

Cn1ncnc1[C@H]1c2n[nH]c(=O)c3cc(F)cc(c23)N[C@@H]1c1ccc(F)cc1 + COc1c(OCCCN2CCOCC2)ccc2c3n(c(=NC(=O)c4cnc(N)nc4)nc12)CCN3
IC50 (second compound 0.00316 µM): > 100 nM
IC50 (second compound 0.01 µM): > 100 nM
IC50 (second compound 0.0316 µM): > 100 nM
IC50 (second compound 0.1 µM): < 0.316 nM
IC50 (second compound 0.316 µM): < 0.316 nM
IC50 (second compound 1 µM): < 0.316 nM
viability, T/C [37]: 101%
viability, T/C [38]: 90.1%
viability, T/C [39]: 88.8%
viability, T/C [40]: 92.6%
viability, T/C [1]: 117%
viability, T/C [2]: 92.8%
viability, T/C [41]: 99.3%
viability, T/C [42]: 91.4%
viability, T/C [43]: 97.7%
viability, T/C [44]: 92.5%
viability, T/C [7]: 101%
viability, T/C [8]: 95.4%
viability, T/C [45]: 98.8%
viability, T/C [46]: 93.9%
viability, T/C [47]: 84.2%
viability, T/C [48]: 86%
viability, T/C [13]: 89.2%
viability, T/C [14]: 97.6%
viability, T/C [49]: 46.5%
viability, T/C [50]: 55.3%
viability, T/C [51]: 40.8%
viability, T/C [52]: 49.5%
viability, T/C [19]: 42%
viability, T/C [20]: 38.8%
viability, T/C [53]: 20.3%
viability, T/C [54]: 21.3%
viability, T/C [55]: 19.4%
viability, T/C [56]: 22.2%
viability, T/C [25]: 21.2%
viability, T/C [26]: 18.5%
viability, T/C [57]: 14.1%
viability, T/C [58]: 15.5%
viability, T/C [59]: 15.3%
viability, T/C [60]: 15.7%
viability, T/C [31]: 14.8%
viability, T/C [32]: 12.6%
